The results in this text go back to patent publication US12233161B1, “Lipids and lipid nanoparticle formulations” (LONGUIDE BIOPHARMA CORPORATION, priority 2024, dated 2025).

One series relates to mice. In words: In vivo delivery of FLuc-mRNA lipid nanoparticles in mice, in vivo imaging (IVIS). The following applies: for IVIS: Fluc-mRNA. The essentials:
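Mice (n=3) received about 75 μL FLuc-mRNA LNP per mouse intramuscularly (rectus femoris), intravenously (tail vein), intraperitoneally or subcutaneously (back). After injection, D-luciferin (200 μL, 15 mg/mL) was given i.p. 10-15 min before IVIS imaging.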

Series [1] can be described thus: Particle size and PDI of nucleic acid lipid nanoparticle preparations by dynamic light scattering. Format: physicochemical. Summed up: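 Size read by DLS after diluting the LNP preparation (approx. 0.04 mg/mL mRNA) in ultrapure water with gentle pipette mixing. The same sample, recovered and diluted further with water, was then used for zeta potential measurement.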

Series [2] is described as follows: Potential characterization of nucleic acid lipid nanoparticle preparations. The series is classed as physicochemical. The essentials: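 Nanoparticles (about 0.04 mg/mL mRNA) were diluted in ultrapure water for Malvern ZEN3700 measurement: 20 μL into 780 μL for potential alone, or 27.5 μL into 200 μL for DLS particle size followed by addition of 600 μL water for potential.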

Where [3] appears, read: IM, DMG-PEG2000:DPPC:Chol:compound 1.40:11.15:38.95:48.50, N/P 30.
Where [4] appears, read: IV, liver, DMG-PEG2000:DPPC:Chol:compound 1.40:11.15:38.95:48.50, N/P 30.
[5] abbreviates: IV, lung, DMG-PEG2000:DPPC:Chol:compound 1.40:11.15:38.95:48.50, N/P 30.
[6] abbreviates: IV, spleen, DMG-PEG2000:DPPC:Chol:compound 1.40:11.15:38.95:48.50, N/P 30.
Where [7] appears, read: DMG-PEG2000:DPPC:Chol:compound 1.40:11.15:38.95:48.50, N/P 30.
Where [8] appears, read: IM, DMG-PEG2000:DSPC:Chol:compound 1.40:11.15:38.95:48.50, N/P 30.
[9] abbreviates: IV, organ not given, DMG-PEG2000:DSPC:Chol:compound 1.40:11.15:38.95:48.50, N/P 30.
Setting [10] is: DMG-PEG2000:DSPC:Chol:compound 1.40:11.15:38.95:48.50, N/P 30.
Where [11] appears, read: IV, liver, DMG-PEG2000:DSPC:Chol:compound 1.40:11.15:38.95:48.50, N/P 40.
Setting [12] is: IV, lung, DMG-PEG2000:DSPC:Chol:compound 1.40:11.15:38.95:48.50, N/P 40.
[13] abbreviates: IV, spleen, DMG-PEG2000:DSPC:Chol:compound 1.40:11.15:38.95:48.50, N/P 40.
The mark [14] stands for this setting: DMG-PEG2000:DSPC:Chol:compound 1.40:11.15:38.95:48.50, N/P 40.
Where [15] appears, read: IV, body, DMG-PEG2000:DSPC:Chol:compound 1.40:11.15:38.95:48.50, N/P 30.
Where [16] appears, read: IV, liver, DMG-PEG2000:DSPC:Chol:compound 1.40:11.15:38.95:48.50, N/P 30.
The mark [17] stands for this setting: IV, lung, DMG-PEG2000:DSPC:Chol:compound 1.40:11.15:38.95:48.50, N/P 30.
Where [18] appears, read: IV, spleen, DMG-PEG2000:DSPC:Chol:compound 1.40:11.15:38.95:48.50, N/P 30.
Where [19] appears, read: IM, DMG-PEG2000:DSPC:Chol:compound 1.40:11.15:38.95:48.50, N/P 20.
[20] abbreviates: IV, organ not given, DMG-PEG2000:DSPC:Chol:compound 1.40:11.15:38.95:48.50, N/P 20.
[21] abbreviates: DMG-PEG2000:DSPC:Chol:compound 1.40:11.15:38.95:48.50, N/P 20.
[22] abbreviates: IV, liver, mPEG-DMPE:DOPE:Chol:compound 1.40:11.15:38.95:48.50, N/P 24.
Setting [23] is: IV, lung, mPEG-DMPE:DOPE:Chol:compound 1.40:11.15:38.95:48.50, N/P 24.
The mark [24] stands for this setting: IV, spleen, mPEG-DMPE:DOPE:Chol:compound 1.40:11.15:38.95:48.50, N/P 24.
[25] abbreviates: mPEG-DMPE:DOPE:Chol:compound 1.40:11.15:38.95:48.50, N/P 24.

Take `CCCCCCCCCCCCN(C)C(=O)C(O)CN(CCCN(C)CCCN(CC(O)C(=O)N(C)CCCCCCCCCCCC)CC(O)C(=O)N(C)CCCCCCCCCCCC)CC(O)C(=O)N(C)CCCCCCCCCCCC` (centres unmarked) [Compound L0345]: the IVIS amounted to 3.56E+05 in the series on mice (setting [3]); 2.28E+06 with mice (IV, body, DMG-PEG2000:DPPC:Chol:compound 1.40:11.15:38.95:48.50, N/P 30); 1.27E+05 in the series on mice (setting [4]); 6.05E+06 in the series on mice (setting [5]); 5.29E+05 in the series with mice (setting [6]). Besides, the “% of organ targeting” value turned out to be 1.89% in the series on mice (setting [4]), 90.22% in the series on mice (setting [5]) and 7.89% in the series with mice (setting [6]). In addition, in series [1] (setting [7]), the PDI turned out to be 0.19. In series [1] (setting [7]), the “Particle size (nm)” value worked out at 81.64 nm. Moreover, the “Zeta potential (mV)” value in series [2] (setting [7]) was found to be 10.25 mV.
For `CCCCCCCCCCCCNC(=O)C(O)CNCCN(C)CCN(CC(O)C(=O)NCCCCCCCCCCCC)CC(O)C(=O)NCCCCCCCCCCCC` (centres unmarked) [Compound L0290], the IVIS in the series with mice (setting [8]) was 3.06E+05; with mice (setting [9]), 1.18E+06. Besides, in series [1] (setting [10]), the PDI was found to be 0.17. The “Particle size (nm)” value in series [1] (setting [10]) is recorded as 89.51 nm. Moreover, the “Zeta potential (mV)” value in series [2] (setting [10]) is on record as 15.97 mV.
With `CCCCCCCCCCCCNC(=O)C(O)CN(CCCN(CCCN(CC(O)C(=O)NCCCCCCCCCCCC)CC(O)C(=O)NCCCCCCCCCCCC)CC(O)C[N+](C)(C)C)CC(O)C(=O)NCCCCCCCCCCCC` (centres unmarked) [Compound L0302], the IVIS with mice (IM, DMG-PEG2000:DSPC:Chol:compound 1.40:11.15:38.95:48.50, N/P 40) was 6.87E+05; in the series with mice (IV, body, DMG-PEG2000:DSPC:Chol:compound 1.40:11.15:38.95:48.50, N/P 40), 4.41E+06; in the series on mice (setting [11]), 2.05E+05; in the series with mice (setting [12]) it was 1.52E+07; with mice (setting [13]), 2.47E+05. The “% of organ targeting” value with mice (setting [11]) is recorded as 1.31%; with mice (setting [12]), 97.12%; with mice (setting [13]), 1.57%. In addition, the PDI in series [1] (setting [14]) turned out to be 0.21. The “Particle size (nm)” value in series [1] (setting [14]) is recorded as 132.07 nm. In series [2] (setting [14]), the “Zeta potential (mV)” value turned out to be 16.93 mV.
As for `CCCCCCCC/C=C\CCCCCCCCNC(=O)C(O)CN(CCCN(C)CCCN(CC(O)C(=O)NCCCCCCCC/C=C\CCCCCCCC)CC(O)C(=O)NCCCCCCCC/C=C\CCCCCCCC)CC(O)C(=O)NCCCCCCCC/C=C\CCCCCCCC` (centres unmarked) [Compound L0317], the IVIS with mice (setting [8]) came to 1.53E+06; with mice (setting [15]), 3.60E+07; with mice (setting [16]), 2.78E+06; in the series with mice (setting [17]), 7.03E+07; with mice (setting [18]) it was 1.51E+07. Besides, the figures for the “% of organ targeting” value in the series on mice (setting [16]), in the series on mice (setting [17]) and in the series with mice (setting [18]) were 3.15%, 79.76% and 17.09%, respectively. This compound had a PDI in series [1] (setting [10]) of 0.15. Moreover, in series [1] (setting [10]), the “Particle size (nm)” value stood at 117.83 nm. In series [2] (setting [10]), the “Zeta potential (mV)” value was found to be 13.53 mV.
`CCCCCCCCCCCCNC(=O)C(O)CNCCCN(C)CCCN(CC(O)C(=O)NCCCCCCCCCCCC)CC(O)C(=O)NCCCCCCCCCCCC` (centres unmarked) [Compound L0288]: the IVIS in the series on mice (setting [8]) is on record as 1.45E+05; in the series with mice (setting [15]), 6.03E+06; in the series with mice (setting [16]) it was 5.25E+05; in the series on mice (setting [17]), 7.18E+06; in the series on mice (setting [18]), 1.45E+06. In addition, the figures for the “% of organ targeting” value in the series with mice (setting [16]), in the series on mice (setting [17]) and in the series with mice (setting [18]) were 5.74%, 78.38% and 15.88%, respectively. In addition, the PDI in series [1] (setting [10]) stood at 0.12. For the same compound, the “Particle size (nm)” value in series [1] (setting [10]) was 108.77 nm. In series [2] (setting [10]), the “Zeta potential (mV)” value amounted to 12.50 mV.
Consider `CCCCCCCCCCCCNC(=O)C(O)CNCCCN(C)CCCNCC(O)C(=O)NCCCCCCCCCCCC` (centres unmarked) [Compound L0289], for which the values for the IVIS in the series on mice (setting [8]) and in the series on mice (setting [9]) were 1.24E+05 and 1.63E+05, respectively. The compound further yielded a PDI in series [1] (setting [10]) of 0.09. In series [1] (setting [10]), the “Particle size (nm)” value stood at 132.40 nm. Further, the “Zeta potential (mV)” value in series [2] (setting [10]) came out at 11.00 mV.
On to `CCCCCCCCCCCCOC(=O)C(O)CN(CCCCCN(CC(O)C(=O)OCCCCCCCCCCCC)CC(O)C(=O)OCCCCCCCCCCCC)CC(O)C(=O)OCCCCCCCCCCCC` (centres unmarked) [Compound L0319], for which the IVIS in the series on mice (setting [19]) stood at 7.22E+05. For the same compound, in the series with mice (setting [20]), the IVIS stood at 1.32E+06. In addition, in series [1] (setting [21]), the PDI was determined as 0.13 and the “Particle size (nm)” value was determined as 172.83 nm. For the same compound, in series [2] (setting [21]), the “Zeta potential (mV)” value worked out at 11.20 mV.
On to `CCCCCCCCCCCCOC(=O)C(O)CN(CCCCCCCN(CC(O)C(=O)OCCCCCCCCCCCC)CC(O)C(=O)OCCCCCCCCCCCC)CC(O)C(=O)OCCCCCCCCCCCC` (centres unmarked) [Compound L0322], for which, in the series on mice (setting [19]), the IVIS is 8.23E+05. In the series on mice (setting [20]), this compound gave an IVIS of 2.72E+05. Moreover, in series [1] (setting [21]), the PDI was found to be 0.40 and the “Particle size (nm)” value worked out at 260.70 nm. For the same compound, the “Zeta potential (mV)” value in series [2] (setting [21]) is 9.14 mV.
For `CCCCCCCCCCCCN(C)C(=O)C(O)CN(C)CCCN(C)CCCN(C)CC(O)C(=O)N(C)CCCCCCCCCCCC` (centres unmarked) [Compound L0343], in the series on mice (setting [3]), the IVIS is given as 9.39E+04. The IVIS in the series on mice (IV, organ not given, DMG-PEG2000:DPPC:Chol:compound 1.40:11.15:38.95:48.50, N/P 30) is 2.20E+05. In addition, in series [1] (setting [7]), the PDI came out at 0.24 and the “Particle size (nm)” value stood at 116.17 nm. In series [2] (setting [7]), the “Zeta potential (mV)” value is listed as 4.33 mV.
In the case of `CCCCCCCCCCN(C)C(=O)C(O)CN(CCCN(C)CCCN(CC(O)C(=O)N(C)CCCCCCCCCC)CC(O)C(=O)N(C)CCCCCCCCCC)CC(O)C(=O)N(C)CCCCCCCCCC` (centres unmarked) [Compound L0347], the IVIS in the series on mice (IM, mPEG-DMPE:DOPE:Chol:compound 1.40:11.15:38.95:48.50, N/P 24) amounted to 6.65E+04; with mice (IV, body, mPEG-DMPE:DOPE:Chol:compound 1.40:11.15:38.95:48.50, N/P 24), 3.20E+06; in the series on mice (setting [22]), 1.56E+05; in the series with mice (setting [23]), 9.16E+06; in the series with mice (setting [24]), 1.28E+06. Besides, the “% of organ targeting” value in the series on mice (setting [22]) amounted to 1.47%; in the series with mice (setting [23]) it was 86.45%; in the series on mice (setting [24]), 12.08%. Moreover, the PDI in series [1] (setting [25]) is given as 0.10. The “Particle size (nm)” value in series [1] (setting [25]) amounted to 148.60 nm. Moreover, in series [2] (setting [25]), the “Zeta potential (mV)” value was determined as 10.83 mV.
